How the values were obtained:
Assay in all cases: Kinase profiling in a biochemical assay panel (mobility shift assays and ELISA), %-inhibition at 1 μM; selectivity entropy
[1] = target: panel of more than 300 wild-type and mutant kinases (313 kinase panel) (Homo sapiens, UniProt P24723); settings: kinase PKCη; 1 μM
[2] = target: T1, panel of more than 300 wild-type and mutant kinases (313 kinase panel) (Homo sapiens, UniProt Q12866); settings: kinase MER; compound at 1 μM
T1 sequence (Q12866 21-999): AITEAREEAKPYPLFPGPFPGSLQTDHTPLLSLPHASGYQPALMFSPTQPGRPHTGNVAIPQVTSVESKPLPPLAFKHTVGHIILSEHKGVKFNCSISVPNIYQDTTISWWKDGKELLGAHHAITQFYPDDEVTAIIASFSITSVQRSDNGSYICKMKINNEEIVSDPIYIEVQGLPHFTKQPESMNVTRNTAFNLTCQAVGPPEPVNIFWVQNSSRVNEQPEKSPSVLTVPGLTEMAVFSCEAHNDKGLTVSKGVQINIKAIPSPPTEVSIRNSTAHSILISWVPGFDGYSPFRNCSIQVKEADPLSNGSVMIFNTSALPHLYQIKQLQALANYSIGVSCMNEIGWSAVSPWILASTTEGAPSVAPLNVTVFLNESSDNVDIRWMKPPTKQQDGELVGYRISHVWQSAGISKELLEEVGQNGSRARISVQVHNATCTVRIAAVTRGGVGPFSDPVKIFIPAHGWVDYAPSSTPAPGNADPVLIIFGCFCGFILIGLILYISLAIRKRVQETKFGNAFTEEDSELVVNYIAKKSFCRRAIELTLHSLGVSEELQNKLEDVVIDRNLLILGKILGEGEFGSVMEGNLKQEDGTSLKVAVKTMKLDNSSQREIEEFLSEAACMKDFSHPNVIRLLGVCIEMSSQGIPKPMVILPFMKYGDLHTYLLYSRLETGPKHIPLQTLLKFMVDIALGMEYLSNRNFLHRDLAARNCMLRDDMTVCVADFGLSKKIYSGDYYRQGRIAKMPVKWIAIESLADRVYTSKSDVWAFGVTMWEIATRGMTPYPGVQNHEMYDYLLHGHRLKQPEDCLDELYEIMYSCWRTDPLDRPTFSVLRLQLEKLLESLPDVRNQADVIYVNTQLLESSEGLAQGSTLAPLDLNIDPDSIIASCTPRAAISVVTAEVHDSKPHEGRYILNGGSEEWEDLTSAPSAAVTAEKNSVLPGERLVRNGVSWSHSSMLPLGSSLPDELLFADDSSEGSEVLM

[3] = target: panel of more than 300 wild-type and mutant kinases (313 kinase panel) (Homo sapiens, UniProt P43405); settings: kinase SYK; 1 μM
[4] = target: T2, panel of more than 300 wild-type and mutant kinases (313 kinase panel) (Homo sapiens, UniProt Q96L34); settings: kinase MARK4; compound at 1 μM
T2 sequence (Q96L34 1-752): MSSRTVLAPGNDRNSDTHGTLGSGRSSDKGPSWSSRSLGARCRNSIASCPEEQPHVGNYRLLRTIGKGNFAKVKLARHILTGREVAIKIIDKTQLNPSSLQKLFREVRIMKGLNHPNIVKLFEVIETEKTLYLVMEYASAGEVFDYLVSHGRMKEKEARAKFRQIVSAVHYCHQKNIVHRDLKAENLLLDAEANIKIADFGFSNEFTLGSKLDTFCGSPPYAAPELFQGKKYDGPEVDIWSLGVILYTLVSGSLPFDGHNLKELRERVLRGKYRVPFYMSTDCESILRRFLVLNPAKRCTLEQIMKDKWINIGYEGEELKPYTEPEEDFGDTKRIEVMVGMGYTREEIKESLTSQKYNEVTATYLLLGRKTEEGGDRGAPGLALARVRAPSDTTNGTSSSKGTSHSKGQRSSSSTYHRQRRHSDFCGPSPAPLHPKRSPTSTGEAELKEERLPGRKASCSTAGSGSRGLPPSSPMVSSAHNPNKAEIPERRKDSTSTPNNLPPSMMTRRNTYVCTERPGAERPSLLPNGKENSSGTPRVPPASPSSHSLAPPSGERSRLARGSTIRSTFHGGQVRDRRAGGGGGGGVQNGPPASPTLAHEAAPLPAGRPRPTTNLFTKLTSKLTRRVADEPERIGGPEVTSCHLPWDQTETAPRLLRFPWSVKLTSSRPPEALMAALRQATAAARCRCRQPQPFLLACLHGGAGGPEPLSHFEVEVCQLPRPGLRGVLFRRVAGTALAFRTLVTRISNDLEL

[5] = target: panel of more than 300 wild-type and mutant kinases (313 kinase panel) (Homo sapiens, UniProt Q15303); settings: kinase HER4; compound at 1 μM
Chain of panel of more than 300 wild-type and mutant kinases (313 kinase panel) (Homo sapiens, UniProt Q15303) (Q15303 26-1308, change not shown): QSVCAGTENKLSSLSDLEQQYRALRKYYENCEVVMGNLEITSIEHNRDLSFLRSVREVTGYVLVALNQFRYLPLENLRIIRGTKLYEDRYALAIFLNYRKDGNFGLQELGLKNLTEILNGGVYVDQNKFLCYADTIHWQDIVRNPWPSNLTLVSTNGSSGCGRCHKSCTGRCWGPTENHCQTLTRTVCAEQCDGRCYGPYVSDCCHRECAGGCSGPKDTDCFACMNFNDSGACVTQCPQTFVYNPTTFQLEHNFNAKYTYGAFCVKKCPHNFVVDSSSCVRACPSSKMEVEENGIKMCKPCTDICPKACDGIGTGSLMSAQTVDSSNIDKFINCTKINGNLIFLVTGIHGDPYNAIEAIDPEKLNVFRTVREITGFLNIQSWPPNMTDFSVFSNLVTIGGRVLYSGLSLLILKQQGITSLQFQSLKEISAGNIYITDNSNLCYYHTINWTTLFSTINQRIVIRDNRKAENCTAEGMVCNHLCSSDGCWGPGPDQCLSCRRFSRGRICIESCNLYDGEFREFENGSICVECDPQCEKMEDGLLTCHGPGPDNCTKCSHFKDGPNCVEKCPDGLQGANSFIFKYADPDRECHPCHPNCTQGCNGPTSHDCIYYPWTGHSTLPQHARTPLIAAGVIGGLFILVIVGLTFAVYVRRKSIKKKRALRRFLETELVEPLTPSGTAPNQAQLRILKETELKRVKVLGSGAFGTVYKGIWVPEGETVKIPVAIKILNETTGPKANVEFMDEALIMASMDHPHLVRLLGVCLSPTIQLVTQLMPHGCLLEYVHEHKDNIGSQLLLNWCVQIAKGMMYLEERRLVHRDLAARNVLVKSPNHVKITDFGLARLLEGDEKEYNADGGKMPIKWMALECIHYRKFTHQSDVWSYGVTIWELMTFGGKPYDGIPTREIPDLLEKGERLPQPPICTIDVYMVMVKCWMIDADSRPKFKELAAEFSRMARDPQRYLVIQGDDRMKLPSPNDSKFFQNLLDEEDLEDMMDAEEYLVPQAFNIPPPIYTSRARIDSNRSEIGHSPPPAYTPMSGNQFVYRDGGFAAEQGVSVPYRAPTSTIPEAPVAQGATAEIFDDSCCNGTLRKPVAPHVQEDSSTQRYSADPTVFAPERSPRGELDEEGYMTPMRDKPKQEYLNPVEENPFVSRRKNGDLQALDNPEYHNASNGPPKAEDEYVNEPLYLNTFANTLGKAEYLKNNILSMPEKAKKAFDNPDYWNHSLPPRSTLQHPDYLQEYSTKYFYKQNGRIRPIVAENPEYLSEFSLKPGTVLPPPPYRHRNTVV

[6] = target: T3, panel of more than 300 wild-type and mutant kinases (313 kinase panel) (Homo sapiens, UniProt Q92630); settings: kinase DYRK2; compound at 1 μM
T3 sequence (Q92630 1-601): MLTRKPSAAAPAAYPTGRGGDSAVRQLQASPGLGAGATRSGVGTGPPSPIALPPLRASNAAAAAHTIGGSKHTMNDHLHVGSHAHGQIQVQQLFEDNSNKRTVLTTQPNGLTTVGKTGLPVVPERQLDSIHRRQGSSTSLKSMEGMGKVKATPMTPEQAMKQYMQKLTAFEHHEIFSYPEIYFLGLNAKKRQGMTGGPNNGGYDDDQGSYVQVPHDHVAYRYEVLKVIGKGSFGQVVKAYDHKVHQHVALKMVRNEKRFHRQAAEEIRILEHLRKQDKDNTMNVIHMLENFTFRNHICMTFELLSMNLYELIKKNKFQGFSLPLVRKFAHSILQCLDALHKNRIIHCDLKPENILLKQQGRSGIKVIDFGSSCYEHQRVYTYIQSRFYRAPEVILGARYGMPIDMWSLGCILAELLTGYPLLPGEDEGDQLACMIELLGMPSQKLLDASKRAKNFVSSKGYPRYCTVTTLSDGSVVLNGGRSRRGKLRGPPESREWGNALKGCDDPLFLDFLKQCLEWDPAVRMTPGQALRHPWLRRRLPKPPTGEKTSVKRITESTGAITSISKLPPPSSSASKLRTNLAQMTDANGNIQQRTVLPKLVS

Chain of panel of more than 300 wild-type and mutant kinases (313 kinase panel) (Homo sapiens, UniProt P24723) (P24723 whole entry, change not shown): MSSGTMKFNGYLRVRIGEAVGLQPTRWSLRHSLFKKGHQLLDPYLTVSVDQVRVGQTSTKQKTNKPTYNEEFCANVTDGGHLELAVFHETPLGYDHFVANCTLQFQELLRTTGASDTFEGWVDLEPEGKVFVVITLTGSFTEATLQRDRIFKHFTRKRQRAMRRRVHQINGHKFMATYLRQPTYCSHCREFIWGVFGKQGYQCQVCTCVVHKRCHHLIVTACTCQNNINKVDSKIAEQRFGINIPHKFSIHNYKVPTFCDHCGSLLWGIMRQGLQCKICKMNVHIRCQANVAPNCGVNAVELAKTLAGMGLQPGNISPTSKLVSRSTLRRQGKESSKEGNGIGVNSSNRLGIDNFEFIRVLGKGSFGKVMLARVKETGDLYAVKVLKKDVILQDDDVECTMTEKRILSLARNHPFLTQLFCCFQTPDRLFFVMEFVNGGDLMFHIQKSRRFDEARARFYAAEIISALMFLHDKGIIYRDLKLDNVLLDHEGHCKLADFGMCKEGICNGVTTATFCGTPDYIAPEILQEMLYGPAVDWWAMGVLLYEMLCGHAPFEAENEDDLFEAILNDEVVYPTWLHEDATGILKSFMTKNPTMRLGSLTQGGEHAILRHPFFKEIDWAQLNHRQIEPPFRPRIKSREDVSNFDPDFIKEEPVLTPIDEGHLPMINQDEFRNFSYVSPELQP

In the case of `CC(=O)Nc1cccc(-n2c(=O)n(C3CC3)c(=O)c3c(Nc4ccc(I)cc4F)n(C)c(=O)c(C)c32)c1` [trametinib], the “%-inhibition of PKCη” value [1] is reported as -8%, the “%-inhibition of MER” value [2] is reported as -6.62% and the “%-inhibition of SYK” value [3] is reported as -5%. The “%-inhibition of MARK4” value [4] was -15%, the “%-inhibition of HER4” value [5] was 2.34% and the “%-inhibition of DYRK2” value [6] was -0.0865%.
